Some test systems named below: KM12 colon; MALME-3M melanoma; NCI-H460 lung; SK-MEL-28 melanoma; SK-OV-3 ovarian; UACC-257 melanoma; UO-31 renal; LOX IMVI melanoma.
Holding throughout (test): growth of human tumour cells (NCI), 48 h

SMILES strings stand for the structures.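 Values below derive from 48-hour exposures of cells grown in 96-well plates, with endpoints linearly interpolated between the two concentrations bracketing the appropriate inhibition level. Definition used: TGI = concentration required for complete inhibition of growth.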 Some results are limits rather than exact numbers.

In the case of `O=C1C(=Cc2ccc(F)cc2)C(=O)c2ccccc21`, the TGI in the experiment with KM12 colon, in the experiment with MALME-3M melanoma, in the experiment with NCI-H460 lung, in the experiment with SK-MEL-28 melanoma, with SK-OV-3 ovarian and in the experiment with UACC-257 melanoma was over 100 µM in each case. In the experiment with UO-31 renal, this molecule registered a TGI of over 100 µM.
`C=CCCC(=O)CC(=O)OCc1ccccc1`: the TGI in the experiment with KM12 colon, with LOX IMVI melanoma, in the experiment with MALME-3M melanoma, in the experiment on NCI-H460 lung, in the experiment on SK-OV-3 ovarian and in the experiment with UACC-257 melanoma was over 100 µM each time. This molecule returned a TGI with UO-31 renal of over 100 µM.
For the molecule `COC(=O)C(=O)C(C#N)c1c(Cl)cccc1Cl` (stereo not given), the TGI in the experiment with LOX IMVI melanoma, in the experiment on MALME-3M melanoma, with NCI-H460 lung, with SK-MEL-28 melanoma, with SK-OV-3 ovarian and in the experiment on UACC-257 melanoma was over 100 µM in each case. Besides, the TGI with UO-31 renal is over 100 µM.
Regarding `COc1cc(CCc2ccncc2)cc(OC)c1OC`, the TGI with KM12 colon, in the experiment with LOX IMVI melanoma, in the experiment with MALME-3M melanoma, in the experiment on NCI-H460 lung, in the experiment with SK-MEL-28 melanoma and in the experiment on UACC-257 melanoma was over 100 µM throughout. In the experiment on UO-31 renal, this molecule gave a TGI of over 100 µM.
On to `Cc1nc(-n2nc(-c3ccccc3)cc2-c2ccccc2)sc1C(=O)/C=C/c1cccc([N+](=O)[O-])c1`, for which the TGI in the experiment with KM12 colon was 11.4 µM; with LOX IMVI melanoma, 36.6 µM; in the experiment on MALME-3M melanoma, 41.1 µM; with NCI-H460 lung it was 92 µM; in the experiment on SK-MEL-28 melanoma, 34.1 µM; with SK-OV-3 ovarian, over 100 µM. Moreover, the TGI in the experiment on UACC-257 melanoma worked out at 66.1 µM; in the experiment with UO-31 renal, 23.7 µM.
In the case of `O=C(N/C(=C\c1ccc(F)cc1)c1nc2ccccc2[nH]1)c1ccccc1`, the TGI with KM12 colon, in the experiment on LOX IMVI melanoma, with MALME-3M melanoma, in the experiment with NCI-H460 lung, with SK-MEL-28 melanoma and in the experiment on SK-OV-3 ovarian was over 100 µM in each case. The TGI with UACC-257 melanoma and in the experiment with UO-31 renal was over 100 µM throughout.
Turning to `COC1CC(n2cc(F)c(N)nc2=O)OC1CO` (stereo not given), the TGI in the experiment on KM12 colon, in the experiment on LOX IMVI melanoma, in the experiment with MALME-3M melanoma, with NCI-H460 lung, with SK-MEL-28 melanoma and in the experiment on SK-OV-3 ovarian was over 100 µM in each case. Also, the TGI in the experiment on UACC-257 melanoma and in the experiment on UO-31 renal was over 100 µM in each case.
In the case of `CC1OC(=O)N2CCC=CC12` (stereo not given), the TGI in the experiment with KM12 colon, in the experiment on LOX IMVI melanoma, in the experiment on MALME-3M melanoma, with NCI-H460 lung, in the experiment on SK-MEL-28 melanoma and in the experiment on SK-OV-3 ovarian was over 100 µM throughout. Besides, the TGI in the experiment with UACC-257 melanoma and with UO-31 renal was over 100 µM in each case.
As for `COC(=O)C(C)Oc1ccc(O)cc1` (stereo not given), the TGI in the experiment with KM12 colon is over 100 µM; with MALME-3M melanoma it was over 100 µM; in the experiment on NCI-H460 lung, over 100 µM; in the experiment on SK-MEL-28 melanoma it was 62 µM; in the experiment on SK-OV-3 ovarian, over 100 µM; in the experiment on UACC-257 melanoma it was over 100 µM. For the same molecule, in the experiment on UO-31 renal, the TGI is over 100 µM.
Consider `CC1(C2CCC3(C)C(C2)C3Sc2ccccc2)OCCO1` (stereo not given), for which the TGI was 79.2 µM with KM12 colon; 49.6 µM with LOX IMVI melanoma; 41.8 µM in the experiment on MALME-3M melanoma; 46.5 µM with NCI-H460 lung; 63.6 µM in the experiment on SK-MEL-28 melanoma; 88.6 µM with SK-OV-3 ovarian. For the same molecule, the TGI in the experiment with UACC-257 melanoma came to 41.5 µM; in the experiment with UO-31 renal, 31.4 µM.
With `COc1cc([C@@H]2c3cc4c(cc3[C@@H](NCc3cccc(F)c3)C3COC(=O)[C@@H]32)OCO4)cc(OC)c1O` (stereo not given in full), the TGI in the experiment with KM12 colon turned out to be 17.4 µM; in the experiment on LOX IMVI melanoma, 16.3 µM; with MALME-3M melanoma, 21.5 µM; in the experiment with NCI-H460 lung it was 9.23 µM; in the experiment on SK-MEL-28 melanoma, 45.9 µM; in the experiment with SK-OV-3 ovarian, 35.3 µM. The TGI with UACC-257 melanoma was 39.6 µM; with UO-31 renal it was 14.3 µM.
Regarding `CCOc1ccccc1NC(=O)C1=C(C)NC(C)=C(C(=O)Nc2ccccc2OCC)C1c1cccc([N+](=O)[O-])c1`, the TGI in the experiment on KM12 colon, in the experiment with LOX IMVI melanoma, in the experiment with MALME-3M melanoma, in the experiment with NCI-H460 lung, in the experiment with SK-MEL-28 melanoma and in the experiment with SK-OV-3 ovarian was over 100 µM each time. The TGI with UACC-257 melanoma and in the experiment with UO-31 renal was over 100 µM throughout.
Consider `Oc1ccc(O)c(-n2cccn2)c1-n1cccn1`, for which the TGI in the experiment with KM12 colon, with LOX IMVI melanoma, in the experiment on MALME-3M melanoma, in the experiment on NCI-H460 lung, with SK-MEL-28 melanoma and with SK-OV-3 ovarian was over 100 µM each time. The molecule also came in with a TGI in the experiment on UO-31 renal of over 100 µM.
Consider `CCN1CCC(O)(/C=C/c2ccccc2)C(C(=O)/C=C/c2ccccc2)C1` (stereo not given), for which the TGI in the experiment with KM12 colon stood at 3.44 µM; in the experiment with MALME-3M melanoma, 5.09 µM; in the experiment on NCI-H460 lung, 4.03 µM; with SK-MEL-28 melanoma it was 3.91 µM; with SK-OV-3 ovarian it was 19.7 µM; in the experiment on UACC-257 melanoma, 4.55 µM. In the experiment on UO-31 renal, this molecule registered a TGI of 21.7 µM.

For the origin of these results see PubChem BioAssay (NCI).
